Patent US8871934B2, “Fluorene compound and pharmaceutical use thereof” (Japan Tobacco Inc., priority 2008, dated 2014)

What follows are compounds tested against human PDHK2 (hPDHK2) (Homo sapiens (Human), UniProt Q15119) (assay: Inhibitory action of PDHK activity in vitro (kinase reaction, residual PDH activity measured)). Conditions: PDHK inhibitory activity, class symbol of IC50.
Format: biochemical
`CC(=O)N(C)CC(C)Oc1ccc2c(c1)C(O)(C(F)(F)F)c1ccccc1-2` (centres unmarked) [compound 380] gave an IC50 of over 1000 nM.
Work on `CC(=O)N(C)C(C)COc1ccc2c(c1)C(O)(C(F)(F)F)c1ccccc1-2` (centres unmarked) [compound 381] yielded an IC50 of 100 to 1000 nM.
`O=C(COc1ccc2c(c1)C(O)(C(F)(F)F)c1ccccc1-2)N1CCC[C@@H]1CO` (some centres unmarked) [compound 382] was tested, and the IC50 was 100 to 1000 nM.
In the case of `O=C(COc1ccc2c(c1)C(O)(C(F)(F)F)c1ccccc1-2)N1CCC[C@H]1CO` (some centres unmarked) [compound 383], the IC50 is reported as over 1000 nM.
`O=C(O)CCCCOc1cc(Cl)c2c(c1)C(O)(C(F)(F)F)c1ccccc1-2` (centres unmarked) [compound 384] was tested, and the IC50 was 100 to 1000 nM.
Work on `NC(=O)COc1cc(Cl)c2c(c1)C(O)(C(F)(F)F)c1ccccc1-2` (centres unmarked) [compound 385] yielded an IC50 of 100 to 1000 nM.
With `CC(C)Cn1cc(-c2cccc3c2-c2ccccc2C3(O)C(F)(F)F)cn1` (centres unmarked) [compound 386] the IC50 was under 100 nM.
Work on `OCCCCCOc1cc(Cl)c2c(c1)C(O)(C(F)(F)F)c1ccccc1-2` (centres unmarked) [compound 387] yielded an IC50 of under 100 nM.
In the case of `CC(=O)N(C)CCOc1cc(Cl)c2c(c1)C(O)(C(F)(F)F)c1ccccc1-2` (centres unmarked) [compound 388], the IC50 is reported as under 100 nM.
With `O[C@H]1CCN(CCOc2ccc3c(c2)C(O)(C(F)(F)F)c2ccccc2-3)C1` (some centres unmarked) [compound 389] the IC50 was 100 to 1000 nM.
`O[C@@H]1CCN(CCOc2ccc3c(c2)C(O)(C(F)(F)F)c2ccccc2-3)C1` (some centres unmarked) [compound 390] showed an IC50 of 100 to 1000 nM.
Work on `O=C(COc1ccc2c(c1)C(O)(C(F)(F)F)c1ccccc1-2)N1CCC1` (centres unmarked) [compound 391] yielded an IC50 of 100 to 1000 nM.
Compound `Cn1cc(-c2cc(C(=O)N3CCC[C@@H]3CO)cc3c2-c2ccccc2C3(O)C(F)(F)F)cn1` (some centres unmarked) [compound 392] has an IC50 of 100 to 1000 nM.
`Cn1cc(-c2cc(C(=O)N3CCC[C@H]3CO)cc3c2-c2ccccc2C3(O)C(F)(F)F)cn1` (some centres unmarked) [compound 393] showed an IC50 of 100 to 1000 nM.
For `Cn1cc(-c2cc(C(=O)N3CCC(CO)C3)cc3c2-c2ccccc2C3(O)C(F)(F)F)cn1` (centres unmarked) [compound 394], the IC50 was under 100 nM.
For `O=C1CCCN1CCCOc1ccc2c(c1)C(O)(C(F)(F)F)c1ccccc1-2` (centres unmarked) [compound 395], the IC50 was 100 to 1000 nM.
`O=C(COc1ccc2c(c1)C(O)(C(F)(F)F)c1ccccc1-2)N1CCC(O)CC1` (centres unmarked) [compound 396] gave an IC50 of 100 to 1000 nM.
`O=C(COc1ccc2c(c1)C(O)(C(F)(F)F)c1ccccc1-2)N1CCC(CO)CC1` (centres unmarked) [compound 397] was tested, and the IC50 was 100 to 1000 nM.
`CC(=O)N(C)CCOc1cnc2c(c1)C(O)(C(F)(F)F)c1ccccc1-2` (centres unmarked) [compound 398] was tested, and the IC50 was 100 to 1000 nM.
Work on `CN(CCOc1cnc2c(c1)C(O)(C(F)(F)F)c1ccccc1-2)C(=O)CO` (centres unmarked) [compound 399] yielded an IC50 of 100 to 1000 nM.
`O=C(COc1ccc2c(c1)C(O)(C(F)(F)F)c1ccccc1-2)N(CCO)CCO` (centres unmarked) [compound 400] gave an IC50 of over 1000 nM.
Work on `O=C1CCCCN1CCCOc1ccc2c(c1)C(O)(C(F)(F)F)c1ccccc1-2` (centres unmarked) [compound 401] yielded an IC50 of 100 to 1000 nM.
With `O=C(O)Cc1ccc2c(c1)C(O)(C(F)(F)F)c1ccccc1-2` (centres unmarked) [compound 402] the IC50 was over 1000 nM.
In the case of `NC(=O)Cc1ccc2c(c1)C(O)(C(F)(F)F)c1ccccc1-2` (centres unmarked) [compound 403], the IC50 is reported as over 1000 nM.
With `O=C(O)CCCOc1cc(Br)c2c(c1)C(O)(C(F)(F)F)c1ccccc1-2` (centres unmarked) [compound 404] the IC50 was 100 to 1000 nM.
`OCCc1ccc2c(c1)C(O)(C(F)(F)F)c1ccccc1-2` (centres unmarked) [compound 405] showed an IC50 of over 1000 nM.
`OCCCCCOc1cc(-c2cncnc2)c2c(c1)C(O)(C(F)(F)F)c1ccccc1-2` (centres unmarked) [compound 406] gave an IC50 of under 100 nM.
`Cn1cc(-c2cc(OCCCCCO)cc3c2-c2ccccc2C3(O)C(F)(F)F)cn1` (centres unmarked) [compound 407] was tested, and the IC50 was under 100 nM.
Work on `CN(CCOc1cc(Cl)c2c(c1)C(O)(C(F)(F)F)c1ccccc1-2)S(C)(=O)=O` (centres unmarked) [compound 408] yielded an IC50 of under 100 nM.
For `CN(CCOc1cc(Cl)c2c(c1)C(O)(C(F)(F)F)c1ccccc1-2)C(=O)CO` (centres unmarked) [compound 409], the IC50 was under 100 nM.
In the case of `NC(=O)CCCOc1cc(Cl)c2c(c1)C(O)(C(F)(F)F)c1ccccc1-2` (centres unmarked) [compound 410], the IC50 is reported as 100 to 1000 nM.
Compound `OCCn1cc(-c2cccc3c2-c2ccccc2C3(O)C(F)(F)F)cn1` (centres unmarked) [compound 411] has an IC50 of under 100 nM.

Same assay, conditions: class symbol of IC50, read-out: PDHK inhibitory activity
For `Cn1cc(-c2cc(C(=O)O)cc3c2-c2ccccc2C3(O)C(F)(F)F)cn1` (centres unmarked) [compound 344], the IC50 was over 1000 nM.
`O=C(O)c1cc(-c2cncnc2)c2c(c1)C(O)(C(F)(F)F)c1ccccc1-2` (centres unmarked) [compound 367] showed an IC50 of over 1000 nM.

Same assay, conditions: read-out: PDHK inhibitory activity IC50
With `Cn1cc(-c2cc(C(=O)O)cc3c2-c2ccccc2C3(O)C(F)(F)F)cn1` (centres unmarked) [compound 344] the IC50 was over 1000 nM.
For `O=C(O)c1cc(-c2cncnc2)c2c(c1)C(O)(C(F)(F)F)c1ccccc1-2` (centres unmarked) [compound 367], the IC50 was over 1000 nM.
Compound `CC(=O)N(C)CC(C)Oc1ccc2c(c1)C(O)(C(F)(F)F)c1ccccc1-2` (centres unmarked) [compound 380] has an IC50 of 1490 nM.
Work on `CC(=O)N(C)C(C)COc1ccc2c(c1)C(O)(C(F)(F)F)c1ccccc1-2` (centres unmarked) [compound 381] yielded an IC50 of 495 nM.
For `O=C(COc1ccc2c(c1)C(O)(C(F)(F)F)c1ccccc1-2)N1CCC[C@@H]1CO` (some centres unmarked) [compound 382], the IC50 was 863 nM.
For `O=C(COc1ccc2c(c1)C(O)(C(F)(F)F)c1ccccc1-2)N1CCC[C@H]1CO` (some centres unmarked) [compound 383], the IC50 was 1220 nM.
In the case of `O=C(O)CCCCOc1cc(Cl)c2c(c1)C(O)(C(F)(F)F)c1ccccc1-2` (centres unmarked) [compound 384], the IC50 is reported as 219 nM.
`NC(=O)COc1cc(Cl)c2c(c1)C(O)(C(F)(F)F)c1ccccc1-2` (centres unmarked) [compound 385] was tested, and the IC50 was 234 nM.
`CC(C)Cn1cc(-c2cccc3c2-c2ccccc2C3(O)C(F)(F)F)cn1` (centres unmarked) [compound 386] gave an IC50 of 89 nM.
In the case of `OCCCCCOc1cc(Cl)c2c(c1)C(O)(C(F)(F)F)c1ccccc1-2` (centres unmarked) [compound 387], the IC50 is reported as 63 nM.
`CC(=O)N(C)CCOc1cc(Cl)c2c(c1)C(O)(C(F)(F)F)c1ccccc1-2` (centres unmarked) [compound 388] showed an IC50 of 63 nM.
`O[C@H]1CCN(CCOc2ccc3c(c2)C(O)(C(F)(F)F)c2ccccc2-3)C1` (some centres unmarked) [compound 389] gave an IC50 of 822 nM.
Compound `O[C@@H]1CCN(CCOc2ccc3c(c2)C(O)(C(F)(F)F)c2ccccc2-3)C1` (some centres unmarked) [compound 390] has an IC50 of 954 nM.
Work on `O=C(COc1ccc2c(c1)C(O)(C(F)(F)F)c1ccccc1-2)N1CCC1` (centres unmarked) [compound 391] yielded an IC50 of 485 nM.
For `Cn1cc(-c2cc(C(=O)N3CCC[C@@H]3CO)cc3c2-c2ccccc2C3(O)C(F)(F)F)cn1` (some centres unmarked) [compound 392], the IC50 was 200 nM.
Compound `Cn1cc(-c2cc(C(=O)N3CCC[C@H]3CO)cc3c2-c2ccccc2C3(O)C(F)(F)F)cn1` (some centres unmarked) [compound 393] has an IC50 of 176 nM.
`Cn1cc(-c2cc(C(=O)N3CCC(CO)C3)cc3c2-c2ccccc2C3(O)C(F)(F)F)cn1` (centres unmarked) [compound 394] showed an IC50 of 58 nM.
Work on `O=C1CCCN1CCCOc1ccc2c(c1)C(O)(C(F)(F)F)c1ccccc1-2` (centres unmarked) [compound 395] yielded an IC50 of 699 nM.
`O=C(COc1ccc2c(c1)C(O)(C(F)(F)F)c1ccccc1-2)N1CCC(O)CC1` (centres unmarked) [compound 396] gave an IC50 of 627 nM.
`O=C(COc1ccc2c(c1)C(O)(C(F)(F)F)c1ccccc1-2)N1CCC(CO)CC1` (centres unmarked) [compound 397] was tested, and the IC50 was 424 nM.
`CC(=O)N(C)CCOc1cnc2c(c1)C(O)(C(F)(F)F)c1ccccc1-2` (centres unmarked) [compound 398] showed an IC50 of 119 nM.
`CN(CCOc1cnc2c(c1)C(O)(C(F)(F)F)c1ccccc1-2)C(=O)CO` (centres unmarked) [compound 399] was tested, and the IC50 was 149 nM.
Work on `O=C(COc1ccc2c(c1)C(O)(C(F)(F)F)c1ccccc1-2)N(CCO)CCO` (centres unmarked) [compound 400] yielded an IC50 of 7080 nM.
For `O=C1CCCCN1CCCOc1ccc2c(c1)C(O)(C(F)(F)F)c1ccccc1-2` (centres unmarked) [compound 401], the IC50 was 554 nM.
Compound `O=C(O)Cc1ccc2c(c1)C(O)(C(F)(F)F)c1ccccc1-2` (centres unmarked) [compound 402] has an IC50 of over 10000 nM.
In the case of `NC(=O)Cc1ccc2c(c1)C(O)(C(F)(F)F)c1ccccc1-2` (centres unmarked) [compound 403], the IC50 is reported as over 10000 nM.
Work on `O=C(O)CCCOc1cc(Br)c2c(c1)C(O)(C(F)(F)F)c1ccccc1-2` (centres unmarked) [compound 404] yielded an IC50 of 195 nM.
`OCCc1ccc2c(c1)C(O)(C(F)(F)F)c1ccccc1-2` (centres unmarked) [compound 405] was tested, and the IC50 was 6380 nM.
In the case of `OCCCCCOc1cc(-c2cncnc2)c2c(c1)C(O)(C(F)(F)F)c1ccccc1-2` (centres unmarked) [compound 406], the IC50 is reported as 25 nM.
Compound `Cn1cc(-c2cc(OCCCCCO)cc3c2-c2ccccc2C3(O)C(F)(F)F)cn1` (centres unmarked) [compound 407] has an IC50 of 31 nM.
With `CN(CCOc1cc(Cl)c2c(c1)C(O)(C(F)(F)F)c1ccccc1-2)S(C)(=O)=O` (centres unmarked) [compound 408] the IC50 was 65 nM.
Compound `CN(CCOc1cc(Cl)c2c(c1)C(O)(C(F)(F)F)c1ccccc1-2)C(=O)CO` (centres unmarked) [compound 409] has an IC50 of 67 nM.
Work on `NC(=O)CCCOc1cc(Cl)c2c(c1)C(O)(C(F)(F)F)c1ccccc1-2` (centres unmarked) [compound 410] yielded an IC50 of 154 nM.
`OCCn1cc(-c2cccc3c2-c2ccccc2C3(O)C(F)(F)F)cn1` (centres unmarked) [compound 411] showed an IC50 of 66 nM.
